Measured values published in ChEMBL document CHEMBL1201862, “PubChem BioAssay data set” (2004).
Where “and” joins values, the source holds several entries; their conditions need not be identical. Identical values can stand only once. Calls of active or inactive are those of the source.

Tests used:
[1] = system: Streptococcus sp. 'group A'; assay: Streptococcus pyogenes SK(-)GAS viability under kanamycin – luminescence, BacTiterGlo, confirmation, counter-screen for streptokinase expression inhibitor project, dose response (AID 1900); format: functional, organism-based
[2] = target: T1, Streptokinase A (Streptococcus pyogenes serotype M1, UniProt P10520); assay: viability-normalized secreted streptokinase activity reduction – plasminogen activation absorbance, OD405, dose response (AID 1914); format: functional, Streptococcus pyogenes M1 GAS;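 also: secreted streptokinase activity via plasminogen activation per viability signal from cell pellet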
T1 sequence (P10520 whole entry): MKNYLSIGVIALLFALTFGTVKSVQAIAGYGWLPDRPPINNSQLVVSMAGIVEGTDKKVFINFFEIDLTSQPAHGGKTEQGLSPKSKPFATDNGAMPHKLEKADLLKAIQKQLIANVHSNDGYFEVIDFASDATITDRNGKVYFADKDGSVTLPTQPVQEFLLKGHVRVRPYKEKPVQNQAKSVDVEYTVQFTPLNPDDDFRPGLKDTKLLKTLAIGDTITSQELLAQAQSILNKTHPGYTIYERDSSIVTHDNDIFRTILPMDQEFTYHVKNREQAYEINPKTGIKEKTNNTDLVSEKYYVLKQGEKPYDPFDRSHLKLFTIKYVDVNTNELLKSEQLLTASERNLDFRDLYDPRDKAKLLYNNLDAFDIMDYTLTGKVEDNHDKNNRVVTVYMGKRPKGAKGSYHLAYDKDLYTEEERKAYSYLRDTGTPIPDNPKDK

[3] = system: Streptococcus; assay: GAS UMAA2166 growth inhibition – luminescence, BacTiterGlo, counter-screen for streptokinase expression inhibitor project, dose response (AID 1915); format: functional, organism-based;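 also: potency for reduction of bacterial viability or growth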
[4] = target: Cytochrome P450 3A4 (Homo sapiens, UniProt P08684);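 also: CYP3A4 tested as one member of a cytochrome P450 panel screen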
Chain of Cytochrome P450 3A4 (P08684 whole entry): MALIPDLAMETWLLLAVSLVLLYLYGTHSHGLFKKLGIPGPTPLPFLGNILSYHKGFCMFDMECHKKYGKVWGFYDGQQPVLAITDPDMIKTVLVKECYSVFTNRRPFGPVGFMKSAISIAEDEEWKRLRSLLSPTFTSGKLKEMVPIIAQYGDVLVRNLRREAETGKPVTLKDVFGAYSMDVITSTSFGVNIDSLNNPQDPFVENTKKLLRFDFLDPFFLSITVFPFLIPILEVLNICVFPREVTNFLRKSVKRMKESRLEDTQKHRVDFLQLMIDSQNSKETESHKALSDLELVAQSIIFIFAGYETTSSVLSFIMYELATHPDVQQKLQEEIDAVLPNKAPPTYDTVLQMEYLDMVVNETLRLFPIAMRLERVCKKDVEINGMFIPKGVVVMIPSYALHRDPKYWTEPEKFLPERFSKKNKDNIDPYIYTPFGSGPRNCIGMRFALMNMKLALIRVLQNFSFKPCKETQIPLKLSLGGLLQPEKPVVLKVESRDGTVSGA

[5] = target: Cytochrome P450 2C9 (Homo sapiens, UniProt P11712)
Chain of Cytochrome P450 2C9 (P11712 whole entry): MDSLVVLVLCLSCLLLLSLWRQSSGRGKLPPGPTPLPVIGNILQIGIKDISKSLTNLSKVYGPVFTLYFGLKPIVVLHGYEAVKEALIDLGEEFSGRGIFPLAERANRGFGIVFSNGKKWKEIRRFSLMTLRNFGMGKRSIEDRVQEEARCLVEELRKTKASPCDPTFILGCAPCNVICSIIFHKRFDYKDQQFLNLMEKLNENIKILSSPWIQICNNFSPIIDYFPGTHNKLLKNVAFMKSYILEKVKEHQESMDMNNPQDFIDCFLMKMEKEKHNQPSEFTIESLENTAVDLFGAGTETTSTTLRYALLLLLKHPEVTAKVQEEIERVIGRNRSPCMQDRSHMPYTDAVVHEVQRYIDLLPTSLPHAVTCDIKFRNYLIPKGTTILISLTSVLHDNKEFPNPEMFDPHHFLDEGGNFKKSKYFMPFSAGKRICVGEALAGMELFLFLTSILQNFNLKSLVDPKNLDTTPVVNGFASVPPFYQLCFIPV

[6] = target: T2, Cytochrome P450 1A2 (Homo sapiens, UniProt P05177);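 also: PubChem cytochrome P450 panel assay, CYP1A2 panel member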
T2 sequence (P05177 whole entry): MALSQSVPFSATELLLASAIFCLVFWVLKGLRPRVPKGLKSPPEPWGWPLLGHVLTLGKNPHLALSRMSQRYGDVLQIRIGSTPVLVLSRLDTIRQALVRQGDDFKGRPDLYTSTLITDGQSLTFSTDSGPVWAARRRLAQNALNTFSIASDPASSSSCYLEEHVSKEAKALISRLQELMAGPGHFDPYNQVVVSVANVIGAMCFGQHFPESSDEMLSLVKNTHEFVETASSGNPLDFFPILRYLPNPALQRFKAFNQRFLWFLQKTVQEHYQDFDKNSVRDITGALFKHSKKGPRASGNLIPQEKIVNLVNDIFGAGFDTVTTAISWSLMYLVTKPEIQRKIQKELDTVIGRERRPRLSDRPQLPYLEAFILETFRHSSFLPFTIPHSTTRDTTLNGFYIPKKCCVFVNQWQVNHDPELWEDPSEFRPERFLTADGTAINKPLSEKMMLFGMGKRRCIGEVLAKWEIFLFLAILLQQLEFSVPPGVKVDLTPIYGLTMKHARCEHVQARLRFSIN

[7] = target: T3, Rac GTPase-activating protein 1 (Homo sapiens, UniProt Q9H0H5); assay: blockers of MgcRacGAP-driven Rac1 GTP hydrolysis – biochemical, ADP Hunter fluorescence, primary and confirmatory, confirmation (AID 624330); format: functional
T3 sequence (Q9H0H5 whole entry): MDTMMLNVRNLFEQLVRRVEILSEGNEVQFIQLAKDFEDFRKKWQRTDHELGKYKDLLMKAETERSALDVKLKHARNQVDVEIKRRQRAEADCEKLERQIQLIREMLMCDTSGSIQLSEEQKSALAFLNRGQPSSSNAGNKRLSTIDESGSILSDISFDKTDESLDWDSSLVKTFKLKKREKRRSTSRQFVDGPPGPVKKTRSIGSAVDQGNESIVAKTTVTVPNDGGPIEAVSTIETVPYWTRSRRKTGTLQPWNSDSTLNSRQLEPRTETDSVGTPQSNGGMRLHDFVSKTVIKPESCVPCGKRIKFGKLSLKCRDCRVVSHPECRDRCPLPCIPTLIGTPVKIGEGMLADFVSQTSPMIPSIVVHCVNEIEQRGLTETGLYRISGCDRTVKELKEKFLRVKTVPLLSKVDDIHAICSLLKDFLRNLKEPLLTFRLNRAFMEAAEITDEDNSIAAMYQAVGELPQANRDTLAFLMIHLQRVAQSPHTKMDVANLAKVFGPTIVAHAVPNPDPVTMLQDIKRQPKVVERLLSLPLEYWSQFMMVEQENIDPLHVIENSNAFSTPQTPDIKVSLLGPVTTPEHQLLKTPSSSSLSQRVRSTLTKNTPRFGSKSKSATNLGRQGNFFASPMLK

[8] = target: Cytochrome P450 2C19 (Homo sapiens, UniProt P33261); assay: Cytochrome panel assay with activity outcomes. Panel member name: p450-cyp2c19 Compounds with AC50 equal or less than 10 uM are considered active; format: functional
Chain of Cytochrome P450 2C19 (P33261 whole entry): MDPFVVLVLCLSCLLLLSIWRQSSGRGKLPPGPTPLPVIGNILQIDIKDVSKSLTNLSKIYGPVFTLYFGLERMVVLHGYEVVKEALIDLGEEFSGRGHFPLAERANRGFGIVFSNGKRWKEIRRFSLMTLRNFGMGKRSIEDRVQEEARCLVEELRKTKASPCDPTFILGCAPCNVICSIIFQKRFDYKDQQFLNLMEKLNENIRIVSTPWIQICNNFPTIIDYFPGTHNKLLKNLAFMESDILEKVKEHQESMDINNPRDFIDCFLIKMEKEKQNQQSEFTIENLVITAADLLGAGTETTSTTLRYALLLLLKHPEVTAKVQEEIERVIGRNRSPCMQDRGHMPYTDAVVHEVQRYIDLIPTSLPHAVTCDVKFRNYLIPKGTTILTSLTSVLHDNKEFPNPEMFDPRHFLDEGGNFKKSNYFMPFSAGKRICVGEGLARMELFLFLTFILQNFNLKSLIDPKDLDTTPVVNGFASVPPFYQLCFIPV

## Cc1nc(NS(=O)(=O)c2ccc(Cl)s2)c2c3c(sc2n1)CCCC3
[1]
  EC50: 4.37 µM (active)
[2]
  EC50: 21.5 µM (inconclusive)
[3]
  EC50: 14.9 µM (active)

## CCCCc1ccc(-c2nc(NC(=O)C3C4CCC(O4)C3C(=O)O)sc2C)cc1 (configuration not stated)
[4]
  AC50: 14.1 µM (inconclusive)
[5]
  AC50: 3.55 µM (inconclusive)

## COc1cccc([C@H](O)Cn2cc(-c3cccc(CON=C(C)C)c3)nn2)c1
[4]
  AC50: 3.98 µM (inconclusive)

## C[C@@H](COc1ccccc1)N(CCCl)Cc1ccccc1
[5]
  AC50: 31.6 µM (inconclusive) and 12.6 µM (inconclusive)
[6]
  AC50: 12.6 µM (inconclusive)

## CCOc1ccc(NC(=S)NC(=O)/C=C/c2ccc(OC)c(OC)c2)c([N+](=O)[O-])c1
[5]
  AC50: 14.1 µM (inconclusive)
[6]
  AC50: 15.8 µM (inconclusive)

## c1ccc(-c2nnc3n2NC(c2ccc4c(c2)OCO4)S3)cc1 (configuration not stated)
[7]
  IC50: 153 µM (active)

## C[C@@H](C(=O)NCc1ccc(S(C)(=O)=O)cc1)[C@@H]1C[C@@]1(C)[C@@H](NC(=O)OCc1ccccc1)c1ccccc1
[6]
  AC50: 15.8 µM (inconclusive)

## CCOc1cc(CNc2ccc(N3CCOCC3)cc2)cc(Br)c1OCC
[7]
  IC50: 19.6 µM (active)

## Cc1c(C(=O)O)oc2ccc(S(=O)(=O)NCc3ccc4c(c3)OCO4)cc12
[5]
  AC50: 3.55 µM (inconclusive)
[6]
  AC50: 14.1 µM (inconclusive)

## COc1ccc(NC(=O)Cn2nnc(C(=O)NCc3cccs3)c2N)cc1Cl
[1]
  EC50: 67.2 µM (active)
[2]
  EC50: > 150 µM (not active)
[3]
  EC50: > 150 µM (not active)

## O=C(Nc1ccc(Br)cc1C(=O)O)c1ccc2c(c1)C(=O)N(Cc1ccccc1)C2=O
[1]
  EC50: 0.589 µM (active)
[2]
  EC50: 17.5 µM (inconclusive)
[3]
  EC50: 18.3 µM (active)

## Cn1c(C(=O)N2CCN(c3ccc([N+](=O)[O-])cc3)CC2)cc2c(O)nc3ccccc3c21
[1]
  EC50: 5.33 µM (active)
[2]
  EC50: > 150 µM (not active)
[3]
  EC50: > 150 µM (not active)

## CC(C)CN1CCCC2(CCN(C(=O)c3csnn3)CC2)C1
[4]
  AC50: 31.6 µM (inconclusive)

## CC(C)(C)C(=O)NC(c1ccc(Cl)cc1)[C@]1(C)C[C@H]1C1CCCCC1 (some centres not stated)
[8]; read-out: AC50
  AC50: 7.94 µM (inconclusive)

## COc1cccc(Cn2c(=O)c(CCc3ccccc3)nc3cnc(OC)nc32)c1
[6]
  AC50: 12.6 µM (inconclusive)

## CCCC1(C(=O)OC)C=C2C(=C(C)C(=O)C2C)CN1 (configuration not stated)
[4]
  AC50: 39.8 µM (inconclusive)

## CCOC(=O)c1c(CN(C)C)n(-c2ccc(C)cc2)c2cc(Br)c(O)cc12
[1]
  EC50: 8.71 µM (active)
[2]
  EC50: 21.9 µM (active)
[3]
  EC50: > 150 µM (not active)

## N=C(N)SCc1cccc2c(=O)cc(-c3ccccc3)oc12
[8]; read-out: AC50
  AC50: 3.98 µM (inconclusive)
[4]
  AC50: 3.16 µM (inconclusive)

## CCOC(=O)c1c(C)[nH]c(C(=O)OCC(=O)NC2CCS(=O)(=O)C2)c1C (configuration not stated)
[8]
  AC50: inconclusive
[5]
  AC50: 31.6 µM (inconclusive)

## COC(=O)c1ccc(C(=O)OC)c(NC(=O)CSCc2ccc(Br)cc2)c1
[8]; read-out: AC50
  AC50: 2.24 µM (inconclusive)

## O=C(CSc1nnc(CNC(=O)c2ccc(F)cc2)o1)NCc1ccccc1Cl
[1]
  EC50: > 150 µM (not active)
[2]
  EC50: > 150 µM (not active)
[3]
  EC50: > 150 µM (not active)

## O=C(c1ccccc1)c1ccc2n1CC[C@H]2C(=O)O
[6]
  AC50: 25.1 µM (inconclusive) and 15.8 µM (inconclusive)

## O=C1CSc2ccc(C(=O)NCCC3=CCCCC3)cc2N1
[8]; read-out: AC50
  AC50: 7.94 µM (inconclusive)
[4]
  AC50: 12.6 µM (inconclusive)

## Cc1sc2ncnc(Nc3ccc(O)cc3)c2c1C
[7]
  IC50: 39.4 µM (active)

## COc1ccc(C2=NOC(C(=O)Nc3ccc(C(C)=O)cc3)C2)cc1OC (configuration not stated)
[8]; read-out: AC50
  AC50: 22.4 µM (inconclusive)
[5]
  AC50: 11.2 µM (inconclusive)
[6]
  AC50: 6.31 µM (inconclusive)

## CN(Cc1ccccc1)Cn1ccnc1
[4]
  AC50: 3.98 µM (inconclusive)
